In US20060088583A1, “Artificial oxygen carrier containing preventive agents of metHb formation” (Oxygenix Co., Ltd., priority 2004, published 2006):

Key:
[1] = molecular target: T1, hemoglobin vesicle (methemoglobin formation) (Homo sapiens, UniProt P68871+P69905); test: Autoxidation of hemoglobin vesicle in the atmospheric air (37° C.), rate of methemoglobin from absorbance ratio 405/430 nm; format: biochemical; details: for Time required for 50% metHb formation: control 34.0; for Initial rate of metHb formation: control 1.3; for effect to inhibit methemoglobin formation (FIG. 1): encapsulated in hemoglobin vesicle, same manner as Example 1
T1 construct: obtained by purification of human red cells derived from the donated blood; from tissue; host or cells: human red cells from donated blood
T1 sequence (P69905 2-142 limits assumed): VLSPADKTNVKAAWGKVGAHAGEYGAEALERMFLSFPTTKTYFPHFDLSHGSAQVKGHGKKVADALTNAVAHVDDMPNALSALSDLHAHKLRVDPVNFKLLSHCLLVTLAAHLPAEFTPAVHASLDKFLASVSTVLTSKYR
T1 sequence (P68871 2-147 limits assumed): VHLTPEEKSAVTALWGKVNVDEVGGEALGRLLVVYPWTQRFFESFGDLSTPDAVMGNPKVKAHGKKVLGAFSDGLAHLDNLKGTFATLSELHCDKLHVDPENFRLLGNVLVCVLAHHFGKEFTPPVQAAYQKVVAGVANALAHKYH
Procedure: Otherwise, such components were not added to the above hemoglobin solution. Thereafter, using Remolino™ (manufactured by Millipore Japan), each of the obtained mixtures was filtrated through an FM microfilter with a pore size of 0.22 μm (manufactured by Fuji Photo Film Co., Ltd.), so as to obtain a processed hemoglobin solution. Mixed lipid powders (a mixture consisting of phosphatidylcholine, cholesterol, and DPEA; manufactured by Nippon Fine Chemical) were added, little by little, to the hemoglobin solution, resulting in the concentration of lipid of 4.5 wt %. The mixture was then stirred at 4° C. for 12 hours, so as to obtain a multilayer vesicle, in which hemoglobin had been encapsulated. The particle diameter and the number of coating layers were regulated by the extrusion method using Remolino. The FM microfilters were used in the order of pore sizes of 3, 0.8, 0.65, 0.45, 0.3, and 0.22 μm. The obtained hemoglobin vesicle dispersion was diluted with a saline solution. The diluted solution was subjected to ultracentrifugation (50,000 g, 40 minutes), and the supernatant hemoglobin solution was then eliminated by aspiration. Thereafter, a polyoxyethylene-binding lipid [N-(monomethoxy polyethylene glycol-carbamyl)distearoyl phosphatidyl ethanolamine; the molecular weight of the polyethylene glycol chain: 5,300] dispersed in a saline solution was added thereto, at an amount corresponding to 0.3 mol % of the lipid on the outer surface of the vesicle. The mixture was stirred at 25° C. for 2 hours, so as to modify the surface of the hemoglobin vesicle with polyethylene glycol. The concentration of hemoglobin was set at 10 g/dL, and the mixed solution was then filtrated through a 0.45-μm filter (Dismic-25; […]), so as to obtain a polyethylene glycol-modified hemoglobin vesicle.
Each sample was collected over time. Thereafter, the rate of methemoglobin was calculated from the ratio of the absorbance of the hemoglobin vesicle solution at 405 nm to that of at 430 nm.
A hemoglobin vesicle dispersion containing each of a tyrosine derivative, various types of antioxidants, and various types of phenol derivatives, at certain concentrations, was produced. Thereafter, the rate of methemoglobin formation was measured in the same manner as in Example 1.
Thereafter, the rate of 50% methemoglobin formation was measured in the same manner as in Example 1.
Thereafter, the time required for 50% methemoglobin formation was measured in the same manner as in Example 1.

[2] = molecular target: T1, hemoglobin vesicle (methemoglobin formation); test: Autoxidation of hemoglobin vesicle in the atmospheric air (4° C.), chilled storage; format: biochemical; details: [L-tyrosine]=1 mM
Procedure: As a result, a slight amount of dityrosine was confirmed. Thereafter, this experiment was performed on a mixture obtained by adding hydrogen peroxide to a methemoglobin solution containing L-tyrosine. As a result, a large amount of dityrosine was confirmed. This is because of the peroxidase activity of methemoglobin. Thereafter, the change in methemoglobin concentration was observed during chilled storage (4° C.).
Each sample was collected over time. Thereafter, the rate of methemoglobin was calculated from the absorbance ratio. […] 1 month later, the rate of methemoglobin were 4.4% and 9.3%, respectively. 3 months later, they were 10.2% and 24.3%, respectively.

[3] = molecular target: hemoglobin solution in an oxy state (methemoglobin formation) (Homo sapiens, UniProt P68871+P69905); test: Repeated addition of hydrogen peroxide to oxyhemoglobin solution, cyanomethemoglobin method; format: biochemical; details: 60 minutes; 310 μM hydrogen peroxide every 10 minutes, 37° C., air; 5 g/dL oxyhemoglobin; 0.5 wt % methemoglobin and/or 1 mM L-tyrosine
hemoglobin solution in an oxy state (methemoglobin formation), sequence (P69905 2-142 limits assumed): as the sequence (P69905 2-142 limits assumed) above
hemoglobin solution in an oxy state (methemoglobin formation), sequence (P68871 2-147 limits assumed): as the sequence (P68871 2-147 limits assumed) above
Procedure: Thereafter, 310 μM hydrogen peroxide (the same concentration as that of heme in methemoglobin) was added to the above solution, every 10 minutes, for 60 minutes in the atmospheric air at 37° C., while stirring. 300 μl of a sample was collected immediately before addition of each hydrogen peroxide, and 20 μl of catalase (5,000 units) was promptly added to each sample, so as to eliminate the hydrogen peroxide. Thereafter, the rate of methemoglobin was calculated by the cyanomethemoglobin method.

hemoglobin [4] = molecular target: T2, hemoglobin (Homo sapiens, UniProt P68871+P69905); test: Isothermal titration microcalorimetry of L-tyrosine with hemoglobin; format: binding
T2 sequence (P69905 2-142 limits assumed): as the sequence (P69905 2-142 limits assumed) above
T2 sequence (P68871 2-147 limits assumed): as the sequence (P68871 2-147 limits assumed) above

hemoglobin [5] = molecular target: T2, hemoglobin; test: Oxygen dissociation curve of hemoglobin mixed with L-tyrosine; format: biochemical
[6] = Maximum dissolvable concentration of L-tyrosine; format: physicochemical

Compound	Time required for 50% metHb formation ([1]; Table 1, concentration 1 mM) [h]	Initial rate of metHb formation ([1]; concentration 1 mM) [% hr]	Time required for 50% metHb formation ([1]; Table 1, concentration 0.1 mM) [h]	Initial rate of metHb formation ([1]; concentration 0.1 mM) [% hr]	Time required for 50% metHb formation ([1]; Table 1, concentration 3 mM) [h]	Initial rate of metHb formation ([1]; concentration 3 mM) [% hr]	further results
O=c1c(O)c(-c2ccc(O)cc2)oc2cc(O)cc(O)c12 [Kaempferol]	25.0	3.1	–	–	–	–	–
O=c1cc(-c2ccc(O)cc2)oc2cc(O)cc(O)c12 [Apigenin]	35.6	1.4	34.8	1.6	–	–	–
N[C@H](Cc1ccc(O)cc1)C(=O)O [D-tyrosine]	–	–	–	–	–	–	effect to inhibit methemoglobin formation (FIG. 1) [1]: does not have such an effect of inhibiting methemoglobin formation
O=C(O[C@@H]1Cc2c(O)cc(O)cc2O[C@@H]1c1cc(O)c(O)c(O)c1)c1cc(O)c(O)c(O)c1 [Epigallocatechin gallate]	12.4	3.4	–	–	13.0	3.2	Time required for 50% metHb formation ([1]; Table 1, concentration 2 mM): 13.6 h; Initial rate of metHb formation ([1]; concentration 2 mM): 3.2 % hr
O=C(O)Cc1ccc(O)cc1 [p-hydroxyphenyl acetic acid]	30.2	1.7	30.6	1.5	28.3	1.8	–
3,4-dihydroxyphenol-L-alanine	14.4	3.4	30.8	1.4	8.2	5.3	–
L-Tyr-L-Tyr	–	–	–	–	–	–	Time required for 50% metHb formation ([1]; Table 2, concentration 0.1 mM): 32.0 h; Time required for 50% metHb formation ([1]; Table 2, concentration 0.25 mM): 32.0 h
Catalase	–	–	–	–	–	–	Time required for 50% metHb formation ([1]; Table 2, concentration 50000 unit/mL): 45.0 h
Oc1ccccc1 [Phenol]	33.2	1.3	35.6	1.1	–	–	–
L-Tyr-L-Glu	–	–	–	–	–	–	Time required for 50% metHb formation ([1]; Table 2, concentration 0.1 mM): 33.0 h; Time required for 50% metHb formation ([1]; Table 2, concentration 0.25 mM): 33.0 h
O=C(O)CCc1ccc(O)cc1 [3-(p-hydroxyphenyl)pronionic acid, 3-(p-hydroxy-phenyl)pronionic acid]	32.2	1.0	–	–	34.2	1.2	Time required for 50% metHb formation ([1]; Table 1, concentration not given): 34.7 h; Initial rate of metHb formation ([1]; concentration not given): 0.9 % hr
N[C@@H](Cc1ccc(O)cc1)C(=O)O [L-tyrosine]	52.0	0.9	–	–	–	–	Time required for 50% metHb formation ([1]; Table 1, concentration 0.25 mM): 42.0 h; Time required for 50% metHb formation ([1]; Table 1, concentration 0.5 mM): 48.0 h; Time required for 50% metHb formation ([1]; Table 2, concentration 0.25 mM): 42.0 h; Initial rate of metHb formation ([1]; concentration 0.25 mM): 1.1 % hr; Initial rate of metHb formation ([1]; concentration 0.5 mM): 1.0 % hr; effect to inhibit methemoglobin formation (FIG. 1) [1]: inhibits methemoglobin formation; rate of methemoglobin ([2]; 4° C., 1 month later, no L-tyrosine: 9.3%): 4.4%; rate of methemoglobin ([2]; 4° C., 3 months later, no L-tyrosine: 24.3%): 10.2%; rate of methemoglobin ([2]; when prepared, no L-tyrosine: 3.0%): 3.0%; rate of methemoglobin [3]: approximately 80%; heat of binding with hemoglobin (hemoglobin [4]): almost no heat of binding was observed; change in the degree of oxygen affinity (hemoglobin [5]): no change in the degree of oxygen affinity was observed; influence upon the allosteric effect (hemoglobin [5]): no particular influence upon the allosteric effect was found; maximum concentration that can be dissolved [6]: approximately 20 mM
